Patent US20060270591A1, “Androgen receptor coregulators” (priority 2002, published 2006)

Key:
p27^KIP1 = experiment: Western blot of p27KIP1 in PC-3(AR2) cells; assay type: cell-based, human; settings: 10 nM DHT
Protocol: 41. […] (A) C2C12, COS-1, DU145 and PC-3 cell lines were co-transfected with 30 ng pSG5-AR, 0.5 μg MMTV-Luc, 1 ng pRL-SV40, various amounts of pSG5-bSV as indicated, and adjusted to total amount of 2 μg DNA with pSG5. The assay method was the same as FIG. 2. After measuring the luciferase activity, values relative to lane 1 were calculated. Results are the mean±S.D. of three independent experiments. (B) PC-3 was co-transfected with 30 ng pSG5-AR, 1.5 μg pSG5-bSV, 1 ng pRL-SV40, and 0.5 μg reporter gene as indicated by using SuperFect. […] (C) PC-3(AR2) cell line was transfected with EGFP or EGFP-bSV expressing vector using SuperFect. […] Proteins extracted from cells were loaded on 15% SDS-PAGE and analyzed by western blotting. The intensity of each p27 band was quantified and normalized with control protein which is a non-specific band pick up by the antibody in the same blot. The relative intensities to lane 1 were calculated.
478. Protein samples extracted from the cell were separated on 15% SDS-PAGE and transferred to nitrocellulose membranes. Membranes were incubated 1 h with 5% non-fat milk in TBST at room temperature, followed by the antibodies against p27^(KIP1) (Santa Cruz), followed by AP conjugated goat-antimouse antibody. Blots were developed using the AP developing reagent from Bio-Rad. Band intensity was quantitated by Collage® image analysis software (Fotodyne Inc.).

LNCaP cell = settings: 10 nM DHT; cited from earlier work
ARA70 and AR = settings: LNCaP cells; cited from earlier work
AR [1] = experiment: AR reporter gene assay with gelsolin (Example 5); assay type: cell-based, human; settings: for effect on gelsolin enhanced AR activity: PC-3 cells, co-transfected flag-AR peptides
Excerpt: 468. A C-terminal fragment of gelsolin (aa 281-731) was isolated from pACT2 encoding gelsolin, and inserted into pSG5-Gal4 DNA-binding domain (DBD) (constructed by Dr. R. Nakao). AR fragment (aa 36-918) was inserted into pCMX-VP16 (a gift from Dr. D. Chen). For gelsolin expression vector, a full-length cDNA fragment of gelsolin from LKCG, a gift from Dr. D. Kwiatkowski (Northwestern University, Evanston, Ill.), was inserted into pSG5. Dr. M. L. Lu (Harvard Medical School, Boston, Mass.) provided the p (ARE) 4-luciferase (LUC) plasmid. Dr. A. Mizokami (University of Kanazawa, Kanazawa, Japan) provided the pGL3-PSA6.0LUC plasmid. The expression plasmids of AR peptides were constructed by inserting the PCR amplified cDNA fragment of AR DBD into pFlag-CMV (Sigma) and the fragments of AR LBD into pCDNA-flag plasmid. Transfection protocol and reporter gene assay were described in previous report (Ting et al. Proc Natl Acad Sci USA 99, 661-666 (2002)).
Target sequence in this assay (P10275 with tags, fused parts or gaps DEL79-80/DUP473-473): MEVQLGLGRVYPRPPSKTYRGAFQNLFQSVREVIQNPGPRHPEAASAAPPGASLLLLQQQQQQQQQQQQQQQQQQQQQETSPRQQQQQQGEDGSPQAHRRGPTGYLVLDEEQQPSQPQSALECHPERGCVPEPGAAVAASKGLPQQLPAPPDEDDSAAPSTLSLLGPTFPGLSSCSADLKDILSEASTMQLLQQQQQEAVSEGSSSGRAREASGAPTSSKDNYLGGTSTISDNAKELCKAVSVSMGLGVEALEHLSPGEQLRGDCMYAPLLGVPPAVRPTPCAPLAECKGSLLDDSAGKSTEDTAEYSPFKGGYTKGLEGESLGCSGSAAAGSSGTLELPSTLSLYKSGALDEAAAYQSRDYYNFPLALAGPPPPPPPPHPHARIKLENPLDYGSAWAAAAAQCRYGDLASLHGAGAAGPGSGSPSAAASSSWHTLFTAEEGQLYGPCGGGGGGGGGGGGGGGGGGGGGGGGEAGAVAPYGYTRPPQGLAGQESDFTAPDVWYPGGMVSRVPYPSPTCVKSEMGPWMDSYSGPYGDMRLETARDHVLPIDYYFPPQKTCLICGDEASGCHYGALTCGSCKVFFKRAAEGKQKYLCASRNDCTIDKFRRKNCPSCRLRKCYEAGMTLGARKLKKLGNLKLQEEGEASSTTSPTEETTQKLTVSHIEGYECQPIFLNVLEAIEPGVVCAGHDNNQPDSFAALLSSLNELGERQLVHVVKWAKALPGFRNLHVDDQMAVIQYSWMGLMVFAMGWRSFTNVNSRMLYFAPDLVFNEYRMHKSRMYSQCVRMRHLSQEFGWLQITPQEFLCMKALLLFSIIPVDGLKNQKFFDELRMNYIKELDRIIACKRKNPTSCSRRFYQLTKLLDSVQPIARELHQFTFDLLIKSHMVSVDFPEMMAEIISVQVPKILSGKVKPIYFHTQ

[2] = target: T1, AR N-terminus and AR C-terminus (Homo sapiens, UniProt P10275); experiment: Mammalian two-hybrid assay of AR N-C interaction in PC-3 cells; assay type: cell-based; settings: DHT
T1 construct: AR DBD plus LBD (GST-AR-DL); expressed in transfected cells; host or cells: PC-3 cells (human prostate cancer line)
T1 sequence (P10275 555-920 limits assumed): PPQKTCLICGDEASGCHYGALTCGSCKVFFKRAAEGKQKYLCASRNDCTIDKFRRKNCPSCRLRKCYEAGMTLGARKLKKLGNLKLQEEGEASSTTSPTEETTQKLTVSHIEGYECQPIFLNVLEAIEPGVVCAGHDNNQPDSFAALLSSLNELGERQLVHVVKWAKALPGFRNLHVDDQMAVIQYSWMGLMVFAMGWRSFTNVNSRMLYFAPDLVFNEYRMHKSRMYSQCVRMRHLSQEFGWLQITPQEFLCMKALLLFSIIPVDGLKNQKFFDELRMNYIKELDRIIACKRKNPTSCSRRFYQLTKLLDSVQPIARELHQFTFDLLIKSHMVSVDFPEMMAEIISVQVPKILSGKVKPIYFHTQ
T1 sequence (P10275 1-559 partner limits assumed): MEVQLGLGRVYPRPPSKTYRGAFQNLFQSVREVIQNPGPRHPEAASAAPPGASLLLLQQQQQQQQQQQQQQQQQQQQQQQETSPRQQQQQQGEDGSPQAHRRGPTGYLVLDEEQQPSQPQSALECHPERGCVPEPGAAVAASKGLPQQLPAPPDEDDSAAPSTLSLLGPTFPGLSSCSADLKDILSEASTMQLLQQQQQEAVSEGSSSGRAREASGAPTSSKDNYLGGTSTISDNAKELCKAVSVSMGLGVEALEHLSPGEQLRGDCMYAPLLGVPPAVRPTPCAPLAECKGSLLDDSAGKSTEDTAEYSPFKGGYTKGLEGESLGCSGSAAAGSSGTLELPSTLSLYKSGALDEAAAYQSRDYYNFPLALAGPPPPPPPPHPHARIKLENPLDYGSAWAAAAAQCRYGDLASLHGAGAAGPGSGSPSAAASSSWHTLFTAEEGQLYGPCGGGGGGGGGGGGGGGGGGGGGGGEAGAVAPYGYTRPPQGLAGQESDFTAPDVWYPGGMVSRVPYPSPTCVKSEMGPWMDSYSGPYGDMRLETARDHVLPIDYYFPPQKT
Protocol: 44. […] PC-3 cells were transfected with 30 ng plasmids expressing Gal4(DBD)-AR-DL, VP16 or VP16-ARN combined with 1.5 μg pSG5, pSG5-bSV, -ARA55, or -SRC-1α as indicated. The reporter plasmid pG5-Luc (0.5 μg) and control plasmid pRL-Luc (1 ng) were transfected to every sample. The assay was carried out as described in FIG. 29C.
474. Mouse myoblast cell line (C2C12), human prostate cancer cell lines (PC-3 and DU145), and monkey kidney fibroblast cell line (COS-1) were maintained in Dulbecco's minimum essential medium (DMEM) containing penicillin (25 units/ml), streptomycin ([…]), and 10% fetal bovine serum (FBS). In mammalian two-hybrid assay, transfections were performed using the calcium phosphate precipitation method as described previously (15). Briefly, 1.5-3×10^5 cells were plated on 35-mm dishes for 24 h, and the medium was changed to DMEM containing 10% charcol-dextran stripped FBS (CD-FBS) 2 h before transfection. Cells were transfected with 0.5 μg plasmids expressing Gal4(DBD) and VP-16 fusion proteins as indicated. Gal4 response element controlled Firefly luciferase expression plasmid, pG5-Luc, was used as reporter gene. A Renilla luciferase expression plasmid pRL-SV40 was used as an internal control for transfection efficiency. The total amount of DNA was adjusted to 5 μg with pCMX-VP16 vectors. […]

AR [3] = experiment: AR transactivation assay, MMTV-CAT reporter, transient transfection (Example 1); assay type: cell-based, human; settings: PC3 cells; TGF-β 5 ng/ml
Protocol: Human prostate cancer DU145 or PC3 cells, or human lung carcinoma cells NCI H1299 were grown in Dulbecco's minimal essential medium (DMEM) containing penicillin (25 U/ml), streptomycin (25˜g/ml), and 5% fetal calf serum (FCS). One hour before transfection, the medium was changed to DMEM with 5% charcoal-stripped FCS. […] A β-galactosidase expression plasmid, pCMV-β-gal, was used as an internal control for transfection efficiency.
The medium was changed 24 hr posttransfection and the cells treated with either steroid hormones or hydroxyflutamide, and cultured for an additional 24 hr. Cells were harvested and assayed for CAT activity after the cell lysates were normalized by using β-galactosidaseas an internal control. Chloramphenicol acetyltransferase (CA) activity was visualized by PhosphorImager (Molecular Dynamics) and quantitated by ImageQuant software (Molecular Dynamics).
Target sequence in this assay (P10275 whole entry, the tested form may be a part): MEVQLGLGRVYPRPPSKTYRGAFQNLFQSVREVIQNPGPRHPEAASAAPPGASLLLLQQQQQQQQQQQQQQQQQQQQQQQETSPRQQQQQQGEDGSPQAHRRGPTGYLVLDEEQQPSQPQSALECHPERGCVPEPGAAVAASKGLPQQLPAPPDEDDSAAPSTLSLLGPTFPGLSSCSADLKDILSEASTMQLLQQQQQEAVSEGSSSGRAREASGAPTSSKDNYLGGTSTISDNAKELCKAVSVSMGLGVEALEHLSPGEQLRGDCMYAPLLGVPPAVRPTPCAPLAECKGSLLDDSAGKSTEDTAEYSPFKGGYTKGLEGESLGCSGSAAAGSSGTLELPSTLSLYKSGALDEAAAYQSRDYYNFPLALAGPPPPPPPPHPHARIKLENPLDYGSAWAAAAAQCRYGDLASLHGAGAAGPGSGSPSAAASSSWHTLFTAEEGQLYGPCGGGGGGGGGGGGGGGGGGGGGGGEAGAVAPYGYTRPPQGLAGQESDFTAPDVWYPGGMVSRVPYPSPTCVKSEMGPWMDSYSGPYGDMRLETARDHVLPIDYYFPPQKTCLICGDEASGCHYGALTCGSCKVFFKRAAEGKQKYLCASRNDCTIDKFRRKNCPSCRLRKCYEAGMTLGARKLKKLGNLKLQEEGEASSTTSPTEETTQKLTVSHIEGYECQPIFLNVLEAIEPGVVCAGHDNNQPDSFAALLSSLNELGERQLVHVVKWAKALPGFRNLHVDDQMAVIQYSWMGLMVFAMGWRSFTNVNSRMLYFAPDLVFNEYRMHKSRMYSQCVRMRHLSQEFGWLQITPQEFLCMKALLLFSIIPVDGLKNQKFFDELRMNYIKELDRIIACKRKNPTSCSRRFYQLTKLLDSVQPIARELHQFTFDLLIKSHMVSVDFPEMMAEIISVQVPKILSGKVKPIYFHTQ

ARA55 mRNA = experiment: Northern blot of ARA55 mRNA in PC3 cells; assay type: cell-based, human; settings: 5 ng/ml
Excerpt: 360. The total RNA (25˜g) was fractionated on a 1% formaldehyde-MOPS agarose gel, transferred onto a Hybond-N nylon membrane (Amersham) and prehybridized. A probe corresponding to the 900 bp C-terminus of ARA55 or an ARA54-specific sequence was 32P-labeled in vitro using Random Primed DNA Labeling Kit (Boehringer-Mannheim) according to the manufacture's protocol and hybridized overnight. After washing, the blot was exposed and quantified by Molecular Dynamics PhosphorImager. β-actin was used to monitor the amount of total RNA in each lane.

AR [4] = experiment: AR transactivation dual-luciferase assay with supervillin (Example 6); assay type: cell-based, human; settings: COS-1 cells; 10 nM DHT; MMTV-Luc
Protocol: In AR transactivation activity assays, transfections were performed using SuperFect (Qiagen, Chatsworth, Calif.) following protocols described in manual provided by Qiagen. Briefly, cells were plated on 35 mm dishes and after 24 h were transfected using the SuperFect kit. The total DNA amount was adjusted to 2 μg with pSG5 or pEGFP vectors. The medium was changed to DMEM with 10% CD-FBS 2 h after transfection. After 24 h, the DMEM with 10% CD-FBS was changed again, and the cells were treated with various steroids. Cells were harvested after 24 h for dual-luciferase assay as described in protocol provided by Promega. At least three independent experiments were carried out in each case.
Target sequence in this assay (P10275 with tags, fused parts or gaps DEL79-80/DUP473-473): as the sequence (P10275 with tags, fused parts or gaps DEL79-80/DUP473-473) above

C[C@]12CCC(=O)C[C@@H]1CC[C@@H]1[C@@H]2CC[C@]2(C)[C@@H](O)CC[C@@H]12 [DHT, 5α-dihydrotestosterone, reference compound]
p27^(KIP1) protein expression (p27^KIP1): induced p27^(KIP1) protein expression
LNCaP cell apoptosis (LNCaP cell): promotes LNCaP cell apoptosis

Oc1ccc(C=Cc2cc(O)cc(O)c2)cc1 [resveratrol]
expression of ARA70 and AR transactivation (ARA70 and AR): repress the expression of ARA70 and AR transactivation

D1: AR peptide D1 (aa 551-600) within AR DBD (DYYFPPQKTCLICGDEASGCHYGALTCGSCKVFFKRAAEGKQKYLCASRN; UniProt P10275 551-600, looked up, fragment)
effect on gelsolin enhanced AR activity (AR [1]): suppressed gelsolin enhanced AR activity

HI-2: AR peptide H1-2 (aa 655-695) within AR LBD (TTQKLTVSHIEGYECQPIFLNVLEAIEPGVVCAGHDNNQPD; left off: small tags and cut ends)
effect on gelsolin enhanced AR activity (AR [1]): suppressed gelsolin enhanced AR activity

SRC-1: p160 steroid receptor coactivator-1
effect on AR N-C interaction [2]: further enhance

TGF-β [reference compound]
increase of AR transcription activity (AR [3]): 70%
induction of ARA55 mRNA (ARA55 mRNA): 2 fold

bSV(831-1281): peptide containing a.a. 831-1281 of bSV, conjugated with EGFP
AR transactivation with EGFP-bSV construct (AR [4]): 248 fold

bSV(1010-1792): domain within SV (a.a. 1010-1792), conjugated with EGFP
effect of EGFP-bSV construct on AR transactivation (AR [4]): only a marginal effect

gelsolin: multifunction actin-binding protein, AR coregulator
inhibition of AR activity by HF with added gelsolin (AR [1]; 100 nM HF, normal 10% FCS medium): 40%
enhancement of AR transcription activity (AR [1]; DU145 cells, 10 nM DHT): 2-3 fold
effect on AR transcription activity (AR [1]; DU145 cells, absence of DHT): no significant effect
